Data reported in US9409966B2, “Glucagon-like peptide-1 derivatives and their pharmaceutical use” (priority 2007, dated 2016).
*1 amine or outer side, *2 acyl side, *3 side chain or, on linkers, in order; H or OH if unused. Where a SMILES comes first, the peptide text is derived from it. Side-chain parts run from the residue outwards. [ ]: non-standard residue; d: D form. The star is where a group is joined. C20 diacid = O=C(O)CCCCCCCCCCCCCCCCCCC(=O)*; βAsp = O=C(O)[C@H](CC(=O)[*:2])N[*:1]; AEEA = NCCOCCOCC(=O)O; Aib = CC(C)(N)C(=O)O; Inp = O=C(O)C1CCNCC1

What was measured:
[1] = target: T1, human GLP-1 receptor (Homo sapiens, UniProt P43220); test: Stimulation of cAMP formation in a cell line expressing the cloned human GLP-1 receptor; assay type: biochemical; conditions: cAMP production, purified plasma membranes from BHK467-12A (tk-ts13), AlphaScreen cAMP Assay Kit; read-out: Potency [EC50/nM]
T1 construct: expressed in transfected cells; host or cells: BHK467-12A (tk-ts13) baby hamster kidney cells; purified plasma membranes

[2] = target: human serum albumin (HSA) (Homo sapiens, UniProt P02768); test: Albumin binding affinity, competition scintillation proximity assay (SPA)
Chain of human serum albumin (HSA) (P02768 25-609): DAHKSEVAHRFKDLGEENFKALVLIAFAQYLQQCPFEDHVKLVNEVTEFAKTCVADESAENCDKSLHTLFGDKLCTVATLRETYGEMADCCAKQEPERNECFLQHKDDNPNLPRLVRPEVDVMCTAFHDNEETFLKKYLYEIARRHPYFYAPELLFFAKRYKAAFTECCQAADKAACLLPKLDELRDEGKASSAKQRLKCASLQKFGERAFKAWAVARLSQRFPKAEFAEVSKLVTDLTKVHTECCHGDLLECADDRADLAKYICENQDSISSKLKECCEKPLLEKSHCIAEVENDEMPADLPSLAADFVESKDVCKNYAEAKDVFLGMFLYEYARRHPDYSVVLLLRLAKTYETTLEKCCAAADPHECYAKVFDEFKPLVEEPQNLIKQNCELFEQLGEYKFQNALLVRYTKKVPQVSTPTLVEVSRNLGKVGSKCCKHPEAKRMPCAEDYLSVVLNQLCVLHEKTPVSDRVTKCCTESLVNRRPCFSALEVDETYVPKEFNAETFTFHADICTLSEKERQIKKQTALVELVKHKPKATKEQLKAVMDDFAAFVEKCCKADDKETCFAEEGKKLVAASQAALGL
Procedure: Streptavidin-SPA beads (GE Healthcare RPNQ0009) were incubated with biotinylated HSA for 5 hours. The beads were washed with buffer to remove unbound HSA. […] After 20 hours of gentle rocking at room temperature the plates were centrifuged and counted on a TopCounter.

T1 sequence (P43220 24-463): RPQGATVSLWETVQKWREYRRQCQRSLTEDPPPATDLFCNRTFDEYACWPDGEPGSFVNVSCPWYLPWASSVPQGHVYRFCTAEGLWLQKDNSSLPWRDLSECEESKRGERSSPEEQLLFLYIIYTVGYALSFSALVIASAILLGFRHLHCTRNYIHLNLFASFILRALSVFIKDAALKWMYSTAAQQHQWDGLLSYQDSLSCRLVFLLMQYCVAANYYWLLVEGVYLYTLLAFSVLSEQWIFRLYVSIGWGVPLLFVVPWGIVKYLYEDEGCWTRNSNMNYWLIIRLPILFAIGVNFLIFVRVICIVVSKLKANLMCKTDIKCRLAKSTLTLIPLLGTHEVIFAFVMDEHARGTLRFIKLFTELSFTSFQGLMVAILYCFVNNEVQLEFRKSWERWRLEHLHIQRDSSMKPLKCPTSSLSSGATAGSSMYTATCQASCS

Row | EC50 [1] | EC50 [2] | SMILES
1 | 0.37 nM | 400 to 800 nM | CC[C@H](C)[C@H](NC(=O)[C@H](Cc1ccccc1)NC(=O)[C@H](CCC(=O)O)NC(=O)[C@H](CCCNC(=N)N)NC(=O)[C@H](C)NC(=O)[C@H](C)NC(=O)[C@H](CCC(N)=O)NC(=O)[C@H](CCC(=O)O)NC(=O)[C@H](CCC(=O)O)NC(=O)[C@H](CC(C)C)NC(=O)[C@H](Cc1ccc(O)cc1)NC(=O)[C@H](CO)NC(=O)[C@H](CO)NC(=O)[C@@H](NC(=O)[C@H](CC(=O)O)NC(=O)[C@H](CO)NC(=O)[C@@H](NC(=O)[C@H](Cc1ccccc1)NC(=O)[C@@H](NC(=O)CNC(=O)[C@H](CCC(=O)O)NC(=O)[C@H](C)NC(=O)CCc1c[nH]cn1)[C@@H](C)O)[C@@H](C)O)C(C)C)C(=O)N[C@@H](C)C(=O)N[C@@H](Cc1c[nH]c2ccccc12)C(=O)N[C@@H](CC(C)C)C(=O)N[C@H](C(=O)N[C@@H](CCCNC(=N)N)C(=O)NCC(=O)N[C@@H](CCCNC(=N)N)C(=O)N[C@@H](CCCCNC(=O)COCCOCCNC(=O)COCCOCCNC(=O)C[C@@H](NC(=O)C1CCN(C(=O)CCCCCCCCCCCCCCCCCCC(=O)O)CC1)C(=O)O)C(N)=O)C(C)C [Example 1, N-epsilon37{2-[2-(2-{2-[2-((R)-3-carboxy-3-{[1-(19-carboxynonadecanoyl)piperidine-4-carbonyl]amino}propionylamino)ethoxy]ethoxy}acetylamino)ethoxy]ethoxy}acetyl [desaminoHis7,Glu22,Arg26,Arg34,Lys37]GLP-1(7-37)amide]
2 | 0.2 nM | 200 to 400 nM | CC[C@H](C)[C@H](NC(=O)[C@H](Cc1ccccc1)NC(=O)[C@H](CCC(=O)O)NC(=O)[C@H](CCCNC(=N)N)NC(=O)[C@H](C)NC(=O)[C@H](C)NC(=O)[C@H](CCC(N)=O)NC(=O)[C@H](CCC(=O)O)NC(=O)[C@H](CCC(=O)O)NC(=O)[C@H](CC(C)C)NC(=O)[C@H](Cc1ccc(O)cc1)NC(=O)[C@H](CO)NC(=O)[C@H](CO)NC(=O)[C@@H](NC(=O)[C@H](CC(=O)O)NC(=O)[C@H](CO)NC(=O)[C@@H](NC(=O)[C@H](Cc1ccccc1)NC(=O)[C@@H](NC(=O)CNC(=O)[C@H](CCC(=O)O)NC(=O)C(C)(C)NC(=O)[C@@H](N)Cc1c[nH]cn1)[C@@H](C)O)[C@@H](C)O)C(C)C)C(=O)N[C@@H](C)C(=O)N[C@@H](Cc1c[nH]c2ccccc12)C(=O)N[C@@H](CC(C)C)C(=O)N[C@H](C(=O)N[C@@H](CCCNC(=N)N)C(=O)NCC(=O)N[C@@H](CCCNC(=N)N)C(=O)N[C@@H](CCCCNC(=O)COCCOCCNC(=O)COCCOCCNC(=O)C[C@H](NC(=O)C1CCN(C(=O)CCCCCCCCCCCCCCCCCCC(=O)O)CC1)C(=O)O)C(N)=O)C(C)C [Example 2, N-epsilon37{2-[2-(2-{2-[2-((S)-3-carboxy-3-{[1-(19-carboxynonadecanoyl)piperidine-4-carbonyl]amino}propionylamino)ethoxy]ethoxy}acetylamino)ethoxy]ethoxy}acetyl [Aib8,Glu22,Arg26,Arg34,Lys37]GLP-1-(7-37)amide]
3 | 0.2 nM | 100 to 150 nM | CC[C@H](C)[C@H](NC(=O)[C@H](Cc1ccccc1)NC(=O)[C@H](CCC(=O)O)NC(=O)[C@H](CCCNC(=N)N)NC(=O)[C@H](C)NC(=O)[C@H](C)NC(=O)[C@H](CCC(N)=O)NC(=O)[C@H](CCC(=O)O)NC(=O)[C@H](CCC(=O)O)NC(=O)[C@H](CC(C)C)NC(=O)[C@H](Cc1ccc(O)cc1)NC(=O)[C@H](CO)NC(=O)[C@H](CO)NC(=O)[C@@H](NC(=O)[C@H](CC(=O)O)NC(=O)[C@H](CO)NC(=O)[C@@H](NC(=O)[C@H](Cc1ccccc1)NC(=O)[C@@H](NC(=O)CNC(=O)[C@H](CCC(=O)O)NC(=O)C(C)(C)NC(=O)[C@@H](N)Cc1c[nH]cn1)[C@@H](C)O)[C@@H](C)O)C(C)C)C(=O)N[C@@H](C)C(=O)N[C@@H](CCCCNC(=O)COCCOCCNC(=O)COCCOCCNC(=O)C[C@H](NC(=O)C1CCN(C(=O)CCCCCCCCCCCCCCCCCCC(=O)O)CC1)C(=O)O)C(=O)N[C@@H](CC(C)C)C(=O)N[C@H](C(=O)N[C@@H](CCCCN)C(=O)NCC(=O)N[C@@H](CCCNC(=N)N)C(=O)NCC(=O)O)C(C)C [Example 5, N-epsilon31{2-[2-(2-{2-[2-((S)-3-carboxy-3-{[1-(19-carboxynonadecanoyl)piperidine-4-carbonyl]amino}propionylamino)ethoxy]ethoxy}acetylamino)ethoxy]ethoxy}acetyl [Aib8,Glu22,Arg26,Lys31]GLP-1-(7-37)] (H-H[Aib]EGTFTSDVSSYLEEQAAREFIAK([AEEA-AEEA-βAsp-Inp-C20 diacid])LVKGRG-OH)
4 | 0.58 nM | 800 to 1500 nM | CC[C@H](C)[C@H](NC(=O)[C@H](Cc1ccccc1)NC(=O)[C@H](CCC(=O)O)NC(=O)[C@H](CCCNC(=N)N)NC(=O)[C@H](C)NC(=O)[C@H](C)NC(=O)[C@H](CCC(N)=O)NC(=O)[C@H](CCC(=O)O)NC(=O)[C@H](CCC(=O)O)NC(=O)[C@H](CC(C)C)NC(=O)[C@H](Cc1ccc(O)cc1)NC(=O)[C@H](CO)NC(=O)[C@H](CO)NC(=O)[C@@H](NC(=O)[C@H](CC(=O)O)NC(=O)[C@H](CO)NC(=O)[C@@H](NC(=O)[C@H](Cc1ccccc1)NC(=O)[C@@H](NC(=O)CNC(=O)[C@H](CCC(=O)O)NC(=O)C(C)(C)NC(=O)[C@@H](N)Cc1c[nH]cn1)[C@@H](C)O)[C@@H](C)O)C(C)C)C(=O)N[C@@H](C)C(=O)N[C@@H](Cc1c[nH]c2ccccc12)C(=O)N[C@@H](CC(C)C)C(=O)N[C@H](C(=O)N[C@@H](CCCNC(=N)N)C(=O)NCC(=O)N[C@@H](CCCNC(=N)N)C(=O)N[C@@H](CCCCNC(=O)COCCOCCNC(=O)COCCOCCNC(=O)CC[C@H](NC(=O)[C@H]1CC[C@H](CNC(=O)CCCCCCCCCCCCCCCCCCC(=O)O)CC1)C(=O)O)C(N)=O)C(C)C [Example 7, N-epsilon37-[2-(2-{2-[2-(2-{2-[(S)-4-Carboxy-4-({trans-4-[(19-carboxy-nonadecanoylamino)methyl]cyclohexanecarbonyl}amino)butyrylamino]ethoxy}ethoxy)acetylamino]ethoxy}ethoxy)acetyl][Aib8,Glu22,Arg26,Arg34,Lys37]GLP-1-(7-37)amide]
5 | 0.66 nM | 1500 to 2000 nM | CC[C@H](C)[C@H](NC(=O)[C@H](Cc1ccccc1)NC(=O)[C@H](CCC(=O)O)NC(=O)[C@H](CCCNC(=N)N)NC(=O)[C@H](C)NC(=O)[C@H](C)NC(=O)[C@H](CCC(N)=O)NC(=O)[C@H](CCC(=O)O)NC(=O)[C@H](CCC(=O)O)NC(=O)[C@H](CC(C)C)NC(=O)[C@H](Cc1ccc(O)cc1)NC(=O)[C@H](CO)NC(=O)[C@H](CO)NC(=O)[C@@H](NC(=O)[C@H](CC(=O)O)NC(=O)[C@H](CO)NC(=O)[C@@H](NC(=O)[C@H](Cc1ccccc1)NC(=O)[C@@H](NC(=O)CNC(=O)[C@H](CCC(=O)O)NC(=O)[C@H](C)NC(=O)CCc1c[nH]cn1)[C@@H](C)O)[C@@H](C)O)C(C)C)C(=O)N[C@@H](C)C(=O)N[C@@H](Cc1c[nH]c2ccccc12)C(=O)N[C@@H](CC(C)C)C(=O)N[C@H](C(=O)N[C@@H](CCCNC(=N)N)C(=O)NCC(=O)N[C@@H](CCCNC(=N)N)C(=O)N[C@@H](CCCCNC(=O)COCCOCCNC(=O)COCCOCCNC(=O)CC[C@H](NC(=O)[C@H]1CC[C@H](CNC(=O)CCCCCCCCCCCCCCCCCCC(=O)O)CC1)C(=O)O)C(N)=O)C(C)C [Example 8, N-epsilon37-[2-(2-{2-[2-(2-{2-[(S)-4-Carboxy-4-({trans-4-[(19-carboxy-nonadecanoylamino)methyl]cyclohexanecarbonyl}amino)butyrylamino]ethoxy}ethoxy)acetylamino]ethoxy}ethoxy)acetyl][DesaminoHis7,Glu22,Arg26,Arg34,Lys37]GLP-1-(7-37)amide]
6 | 0.07 nM |  | CC[C@H](C)[C@H](NC(=O)[C@H](Cc1ccccc1)NC(=O)[C@H](CCC(=O)O)NC(=O)[C@H](CCCNC(=N)N)NC(=O)[C@H](C)NC(=O)[C@H](C)NC(=O)[C@H](CCC(N)=O)NC(=O)[C@H](CCC(=O)O)NC(=O)[C@H](CCC(=O)O)NC(=O)[C@H](CC(C)C)NC(=O)[C@H](Cc1ccc(O)cc1)NC(=O)[C@H](CO)NC(=O)[C@H](CO)NC(=O)[C@@H](NC(=O)[C@H](CC(=O)O)NC(=O)[C@H](CO)NC(=O)[C@@H](NC(=O)[C@H](Cc1ccccc1)NC(=O)[C@@H](NC(=O)CNC(=O)[C@H](CCC(=O)O)NC(=O)C(C)(C)NC(=O)[C@@H](N)Cc1c[nH]cn1)[C@@H](C)O)[C@@H](C)O)C(C)C)C(=O)N[C@@H](C)C(=O)N[C@@H](Cc1c[nH]c2ccccc12)C(=O)N[C@@H](CC(C)C)C(=O)N[C@H](C(=O)N[C@@H](CCCNC(=N)N)C(=O)NCC(=O)N[C@@H](CCCNC(=N)N)C(=O)N[C@@H](CCCCNC(=O)CC[C@H](NC(=O)COCCOCCNC(=O)COCCOCCNC(=O)CCCCCCCCCCCCCCCCC(=O)O)C(=O)O)C(=O)O)C(C)C [Example 38, N-epsilon-37-[(S)-4-carboxy-4-(2-{2-[2-(2-{2-[2-(17-carboxyheptadecanoylamino)ethoxy]ethoxy}acetylamino)ethoxy]ethoxy}acetylamino)butyryl] [Aib8,Glu22,Arg26,34,Lys37] GLP-1 (7-37)]
